Measured values taken from PubChem BioAssay AID330 (DTP/NCI, 2004).
“And” between values parts separate entries of the source, which are not always exact repeats. Equal entries are not always repeated. Toxic doses and inconclusive results are not listed. Rule for the calls: active = survival T/C of 150% or more; inactive = T/C below 125% in these data.

Test system: P388 leukemia ip, CD2F1 mice, survival T/C
Experiment: NCI In Vivo Anticancer Drug Screen. Data for tumor model P388 Leukemia (intraperitoneal) in CD2F1 (CDF1) mice
Settings: endpoint: median survival time, higher = longer survival
Method in brief: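 Mice carrying the transplanted tumor received test compound or vehicle. Survival was recorded in each group, and the value is the treated-group measurement divided by that of the vehicle-treated control group.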

[1] = dose: 50.0 mg/kg/injection, schedule: Q01DX005 (ip), vehicle: saline
[2] = dose: 100.0 mg/kg/injection, schedule: Q01DX005 (ip), vehicle: saline
[3] = dose: 200.0 mg/kg/injection, schedule: Q01DX005 (ip), vehicle: saline
[4] = dose: 6.25 mg/kg/injection, schedule: Q01DX009 (ip), vehicle: saline
[5] = dose: 12.5 mg/kg/injection, schedule: Q01DX009 (ip), vehicle: saline
[6] = dose: 25.0 mg/kg/injection, schedule: Q01DX009 (ip), vehicle: saline
[7] = dose: 60.0 mg/kg/injection, schedule: Q01DX005 (ip), vehicle: saline with Tween-80
[8] = dose: 25.0 mg/kg/injection, schedule: Q04DX002 (ip), vehicle: saline with Tween-80
[9] = dose: 50.0 mg/kg/injection, schedule: Q04DX002 (ip), vehicle: saline with Tween-80
[10] = dose: 100.0 mg/kg/injection, schedule: Q04DX003 (ip), vehicle: Klucel (hydroxypropylcellulose) (HPC)
[11] = dose: 200.0 mg/kg/injection, schedule: Q04DX003 (ip), vehicle: Klucel (hydroxypropylcellulose) (HPC)
[12] = dose: 400.0 mg/kg/injection, schedule: Q04DX003 (ip), vehicle: Klucel (hydroxypropylcellulose) (HPC)
[13] = dose: 60.0 mg/kg/injection, schedule: Q01DX005 (ip), vehicle: Klucel + Tween-80
[14] = dose: 120.0 mg/kg/injection, schedule: Q01DX005 (ip), vehicle: Klucel + Tween-80
[15] = dose: 240.0 mg/kg/injection, schedule: Q01DX005 (ip), vehicle: Klucel + Tween-80

Measured: T/C

OCC12CCCC(CO)(COC1)C2O (stereo unspecified)
inactive: dose: 25.0 mg/kg/injection, schedule: Q01DX005 (ip), vehicle: saline 105 % of control | [1] 105 % of control | [2] 100 % of control | [3] 115 % of control

N#C/C(=C\c1c2ccccc2c(Cl)c2ccccc12)C(N)=S
inactive: [4] 90 % of control | [5] 88 % of control | [6] 90 % of control | dose: 50.0 mg/kg/injection, schedule: Q01DX009 (ip), vehicle: saline 92 % of control | dose: 100.0 mg/kg/injection, schedule: Q01DX009 (ip), vehicle: saline 97 % of control | dose: 200.0 mg/kg/injection, schedule: Q01DX009 (ip), vehicle: saline 103 % of control

Cc1onc(-c2c(F)cccc2Cl)c1-c1ncc(-c2ccc(Br)cc2)o1
inactive: [7] 100 % of control | dose: 120.0 mg/kg/injection, schedule: Q01DX005 (ip), vehicle: saline with Tween-80 104 % of control | dose: 240.0 mg/kg/injection, schedule: Q01DX005 (ip), vehicle: saline with Tween-80 101 % of control

CC1CC(C(=O)O)N1 (stereo unspecified)
inactive: [1] 101 % of control | [2] 98 % of control | [3] 97 % of control

CC(=C\c1ccc(Cl)c(Cl)c1)/C(C)=N/NC(N)=Nc1ccccc1
inactive: [8] 105 % of control | [9] 103 % of control

CCOC(=O)C12CC(COc3ccc([N+](=O)[O-])cc3)ON1OC(COc1ccc([N+](=O)[O-])cc1)C2 (stereo unspecified)
inactive: dose: 15.0 mg/kg/injection, schedule: Q01DX005 (ip), vehicle: saline with Tween-80 93 % of control | dose: 30.0 mg/kg/injection, schedule: Q01DX005 (ip), vehicle: saline with Tween-80 90 % of control | [7] 86 % of control and 88 % of control

N#Cc1nnc2cc(-c3ccccc3)nn2c1-c1cccs1
inactive: dose: 60.0 mg/kg/injection, schedule: Q01DX005 (ip), vehicle: Klucel (hydroxypropylcellulose) (HPC) 86 % of control | dose: 120.0 mg/kg/injection, schedule: Q01DX005 (ip), vehicle: Klucel (hydroxypropylcellulose) (HPC) 90 % of control | dose: 240.0 mg/kg/injection, schedule: Q01DX005 (ip), vehicle: Klucel (hydroxypropylcellulose) (HPC) 87 % of control

CC1(c2ccccc2)OC1C(=O)N(c1ccccc1)c1ccccc1 (stereo unspecified)
inactive: [10] 96 % of control | [11] 94 % of control | [12] 88 % of control

CCOC(=O)Cn1cnc2cc(Cl)c([N+](=O)[O-])cc2c1=O
inactive: [10] 100 % of control and 110 % of control | [11] 101 % of control and 121 % of control | [12] 100 % of control | dose: 600.0 mg/kg/injection, schedule: Q04DX003 (ip), vehicle: Klucel (hydroxypropylcellulose) (HPC) 107 % of control

COC(=O)C(NC(=O)c1ccccc1)C1CCC(Cl)CN1C(=O)OCc1ccccc1 (stereo unspecified)
inactive: dose: 8.75 mg/kg/injection, schedule: Q01DX009 (ip), vehicle: Klucel (hydroxypropylcellulose) (HPC) 100 % of control | dose: 17.5 mg/kg/injection, schedule: Q01DX009 (ip), vehicle: Klucel (hydroxypropylcellulose) (HPC) 100 % of control | dose: 35.0 mg/kg/injection, schedule: Q01DX009 (ip), vehicle: Klucel (hydroxypropylcellulose) (HPC) 100 % of control | dose: 70.0 mg/kg/injection, schedule: Q01DX009 (ip), vehicle: Klucel (hydroxypropylcellulose) (HPC) 92 % of control

CCOC(=O)C(=O)Nc1ccccc1C#N
inactive: dose: 50.0 mg/kg/injection, schedule: Q01DX009 (ip), vehicle: saline + alcohol 105 % of control | dose: 100.0 mg/kg/injection, schedule: Q01DX009 (ip), vehicle: saline + alcohol 99 % of control | dose: 200.0 mg/kg/injection, schedule: Q01DX009 (ip), vehicle: saline + alcohol 101 % of control

Cc1ccc2nc(N(C)C)cc(N(C)C)c2c1
inactive: dose: 6.25 mg/kg/injection, schedule: Q01DX009 (ip), vehicle: Klucel (hydroxypropylcellulose) (HPC) 99 % of control | dose: 12.5 mg/kg/injection, schedule: Q01DX009 (ip), vehicle: Klucel (hydroxypropylcellulose) (HPC) 110 % of control | dose: 25.0 mg/kg/injection, schedule: Q01DX009 (ip), vehicle: Klucel (hydroxypropylcellulose) (HPC) 103 % of control

Cc1cccc(C)c1NC(=O)CCC(=O)C(C)C(=O)c1ccc(O)cc1 (stereo unspecified)
inactive: dose: 100.0 mg/kg/injection, schedule: Q01DX001 (ip), vehicle: saline with Tween-80 100 % of control | dose: 200.0 mg/kg/injection, schedule: Q01DX001 (ip), vehicle: saline with Tween-80 100 % of control | dose: 400.0 mg/kg/injection, schedule: Q01DX001 (ip), vehicle: saline with Tween-80 97 % of control

c1ccc(N2C3Sc4ncccc4C2Sc2ncccc23)cc1
inactive: dose: 50.0 mg/kg/injection, schedule: Q01DX009 (ip), vehicle: Klucel (hydroxypropylcellulose) (HPC) 104 % of control | dose: 100.0 mg/kg/injection, schedule: Q01DX009 (ip), vehicle: Klucel (hydroxypropylcellulose) (HPC) 94 % of control | dose: 200.0 mg/kg/injection, schedule: Q01DX009 (ip), vehicle: Klucel (hydroxypropylcellulose) (HPC) 96 % of control

Fc1ccc(-c2cc(-c3cc(-c4ccc(F)cc4)n[nH]3)[nH]n2)cc1
inactive: [13] 91 % of control | [14] 88 % of control | [15] 88 % of control

OCC(CO)c1ccccc1
inactive: dose: 37.5 mg/kg/injection, schedule: Q04DX003 (ip), vehicle: saline 97 % of control | dose: 75.0 mg/kg/injection, schedule: Q04DX003 (ip), vehicle: saline 100 % of control | dose: 150.0 mg/kg/injection, schedule: Q04DX003 (ip), vehicle: saline 100 % of control

NNc1ncnc2nc[nH]c12
inactive: dose: 6.25 mg/kg/injection, schedule: Q01DX009 (ip), vehicle: saline sonified 95 % of control | [4] 100 % of control | dose: 6.25 mg/kg/injection, schedule: Q01DX009 (ip), vehicle: suspension in saline 111 % of control | dose: 12.5 mg/kg/injection, schedule: Q01DX009 (ip), vehicle: saline sonified 100 % of control | [5] 100 % of control | dose: 12.5 mg/kg/injection, schedule: Q01DX009 (ip), vehicle: suspension in saline 100 % of control | dose: 25.0 mg/kg/injection, schedule: Q01DX009 (ip), vehicle: saline sonified 120 % of control | [6] 106 % of control | dose: 25.0 mg/kg/injection, schedule: Q01DX009 (ip), vehicle: suspension in saline 103 % of control | dose: 50.0 mg/kg/injection, schedule: Q01DX009 (ip), vehicle: suspension in saline 119 % of control | dose: 100.0 mg/kg/injection, schedule: Q04DX003 (ip), vehicle: saline sonified 109 % of control | dose: 200.0 mg/kg/injection, schedule: Q04DX003 (ip), vehicle: saline sonified 90 % of control

CCCCCCCCCCCC(=O)OCCN(CCOC(=O)CCCCCCCCCCC)C(=O)COC(=O)CCCCCCCCCCC
inactive: dose: 6.25 mg/kg/injection, schedule: Q01DX009 (ip), vehicle: saline with Tween-80 96 % of control | dose: 12.5 mg/kg/injection, schedule: Q01DX009 (ip), vehicle: saline with Tween-80 98 % of control | dose: 25.0 mg/kg/injection, schedule: Q01DX009 (ip), vehicle: saline with Tween-80 100 % of control | dose: 100.0 mg/kg/injection, schedule: Q01DX009 (ip), vehicle: saline + Tween-80 + alcohol 111 % of control | dose: 200.0 mg/kg/injection, schedule: Q01DX009 (ip), vehicle: saline + Tween-80 + alcohol 107 % of control

Cn1c(N)c(C(=S)N2CCOCC2)c(=O)n(C)c1=O
inactive: [8] 100 % of control | [9] 104 % of control | dose: 100.0 mg/kg/injection, schedule: Q04DX002 (ip), vehicle: saline with Tween-80 104 % of control

CC(C)([NH-])CO.CC(C)([NH-])CO.[Cl][Cd][Cl]
inactive: dose: 3.13 mg/kg/injection, schedule: Q01DX009 (ip), vehicle: saline 91 % of control | [4] 91 % of control

ClC1=CC(Cl)=C2N=C(N3CCCC3)N=C3N=C(C(Cl)(Cl)Cl)N=C1N32
inactive: [13] 96 % of control | [14] 96 % of control | [15] 87 % of control

Cc1ccc(-c2nc3c(C)nc(-c4ccccc4)nc3n2Nc2ccccc2)cc1
inactive: dose: 50.0 mg/kg/injection, schedule: Q01DX005 (ip), vehicle: saline with Tween-80 94 % of control | dose: 100.0 mg/kg/injection, schedule: Q01DX005 (ip), vehicle: saline with Tween-80 90 % of control | dose: 200.0 mg/kg/injection, schedule: Q01DX005 (ip), vehicle: saline with Tween-80 91 % of control
